In general, IC50 refers to the concentration that gives 50% inhibition. A word on the inhibition: it is the change of the read-out against control, counted positive when it falls.

For data set [1], the system named is PARP1. The arrangement: method as in PMID 34813314, PMID 35091172, PMID 33532187, PMID 35442700, PMID 24481311. The note with it: known dual PARP1-BRD4 inhibitors ref 15-19; cited from earlier work.
The test system of data set [2] is MDA-MB-231. The arrangement: method as in PMID 34813314, PMID 35091172, PMID 33532187, PMID 35442700, PMID 24481311. The note with it: 3 days; breast cancer ref 15-19; cited from earlier work.
In data set [3] the test system is MDA-MB-468. The arrangement: method as in PMID 34813314, PMID 35091172, PMID 33532187, PMID 35442700, PMID 24481311. The note with it: 3 days; breast cancer ref 15-19; cited from earlier work.
The subject of data set [4] is BRD4. Conditions: cited from earlier work.
Data set [5] deals with BRD4 (Homo sapiens, UniProt O60885). As to the kind of experiment: BRD TR-FRET assay, BRD4. It counts as binding. How it is done: The assay was performed by TR-FRET technology using a BRD and its corresponding ligand (BET). The TR-FRET signal from the assay is correlated with the amount of ligand binding to the bromodomain. All of the binding reactions were conducted at room temperature. The 20 μL reaction mixture in Assay Buffer contains either bromodomains, BET Ligand, and the indicated amount of inhibitor. For the negative control (blank), 5 μL of the assay buffer was added instead of the BET ligand. The reaction mixture was incubated for 120 min. After the incubation with the ligand, the TR-FRET signal was measured using a Tecan Infinite M1000 plate reader.
Background: In TR-FRET formats the signal depends on donor and acceptor labels being close together.

Data set [6] has as its target PARP1 (Homo sapiens, UniProt P09874). Kind of data set: In vitro PARP1 enzymatic activity (ELISA, biotinylated NAD+, luminescence). It counts as biochemical. The method, then: The inhibition of the tested compounds on PARP1 enzymatic activity was determined by ELISA in 96-well plates. Each well was precoated with histone (20 μg/mL) diluted in 100 μL of PBS buffer (10 mM NaH2PO4, 100 mM Na2HPO4, 150 mM NaCl, pH 7.4) by incubation at 4 °C overnight. […] The reaction was initiated by the addition of 20 μL of PARP1 (50 ng/well) at 30 °C for 1 h. Then the reaction solution was added to 50 μL of streptavidin conjugated HRP. The assay was performed at 30 °C for an additional 30 min. Finally, 100 μL of solution (H2O2 and luminol in citrate buffer 0.1 M, pH 5.4) was added and luminescent signal was measured using a multiwell spectrophotometer (Molecular Devices SpectraMax M5 microplate reader).
(ELISA stands for enzyme-linked immunosorbent assay.)

In data set [7] the test system is MDA-MB-231 cells. As to the kind of experiment: Cell viability (MTT), MDA-MB-231. The note with it: Homo sapiens, MDA-MB-231, 96 h; 4-day treatment, wild-type BRCA. It counts as cell-based. The method, then:
(§1) MDA-MB-231, MDA-MB-436, and MCF-7 cells were seeded into 96-well plates with the number of 5 × 10^3 in each cell and allowed to incubate for 24 h. Subsequently, various concentrations of the test compounds (ranging from 100 to 0.78 μM with twice gradient dilution) were introduced. After 4 days of incubation, MTT solution was applied, and the cells were incubated for an additional 4 h. Following the removal of the supernatant, the violet crystals were dissolved in 200 μL of DMSO, and the absorbance was measured at 570 nm.

The nature of data set [8]: Solubility observed during activity testing. It counts as physicochemical. The note with it: compared with HF2. The method, then:
The inhibitory effects of both enzymes were measured for HF1 and HF2. […] The large discrepancy in BRD4 activities could be attributed to the nonplanar scaffold of HF1, which appears to fit more effectively into the hydrophobic environment formed by Val87, Phe83, and Ile146 (Figure 5B, right). […] Before proceeding further, we made the decision to examine PJ34, a potent and nonselective PARP1 inhibitor,[13] to assess its impact on BRD4 inhibition. […] Given the strong PARP1 activity and relatively low micromolar BRD4 activity of PJ34 relative to HF1 and HF2, we contemplated whether substituting PJ34’s scaffold with that of HF1 could synergistically enhance BRD4 affinity while maintaining strong PARP1 affinity.

Data set [9] deals with MCF-7 cells. Kind of data set: Cell viability (MTT), MCF-7. Conditions: Homo sapiens, MCF7, 96 h; 4-day treatment, wild-type BRCA. It counts as cell-based. How it is done: as §1
Data set [10] has as its system Capan-1 cell. On the set-up: method as in PMID 34813314, PMID 35091172, PMID 33532187, PMID 35442700, PMID 24481311. The note with it: 4 days; pancreatic cancer ref 15-19; cited from earlier work.
Data set [11] relates to CFPAC-1 cell. On the set-up: method as in PMID 34813314, PMID 35091172, PMID 33532187, PMID 35442700, PMID 24481311. Conditions: 4 days; pancreatic cancer ref 15-19; cited from earlier work.
Data set [12] has as its system SW1990 cell. On the set-up: method as in PMID 34813314, PMID 35091172, PMID 33532187, PMID 35442700, PMID 24481311. Conditions: 4 days; pancreatic cancer ref 15-19; cited from earlier work.
Data set [13] relates to PARP1. As to the kind of experiment: Western blot, PARP1 expression in MCF-7 cells. It counts as cell-based. Conditions: MCF-7, 48 h treatment. How it is done:
(§2) Following a 48 h treatment, cellular proteins were extracted using RIPA cell lysis buffer containing protease and phosphatase inhibitor cocktail. The protein concentration was assessed by using a BCA assay. Subsequently, equal amounts of these proteins were loaded onto an SDS-PAGE gel and transferred onto a PVDF membrane. The protein-loaded membrane was then blocked using a commercial blocking solution (Beyotime, China) and sequentially incubated with primary and secondary antibodies. Protein bands were visualized using an ECL chemiluminescence kit and quantified using ImageJ software.
A general note: A western blot detects proteins with antibodies after separation by electrophoresis.

The test system of data set [14] is MDA-MB-436 cells. As to the kind of experiment: Cell viability (MTT), MDA-MB-436. It counts as cell-based. The note with it: Homo sapiens, MDA-MB-436, 96 h; 4-day treatment, BRCA mutant. The method, then:
as §1

For data set [15], the system named is BRD4. Kind of data set: Western blot, BRD4 expression in MCF-7 cells. Conditions: MCF-7, 48 h treatment. It counts as cell-based. How it is done: as §2
Setting [16] is: known dual PARP1-BRD4 inhibitors ref 15-19.

Read-outs that look alike come from different tables or passages of the source.

Chain of PARP1 (Homo sapiens, UniProt P09874) (P09874 whole entry): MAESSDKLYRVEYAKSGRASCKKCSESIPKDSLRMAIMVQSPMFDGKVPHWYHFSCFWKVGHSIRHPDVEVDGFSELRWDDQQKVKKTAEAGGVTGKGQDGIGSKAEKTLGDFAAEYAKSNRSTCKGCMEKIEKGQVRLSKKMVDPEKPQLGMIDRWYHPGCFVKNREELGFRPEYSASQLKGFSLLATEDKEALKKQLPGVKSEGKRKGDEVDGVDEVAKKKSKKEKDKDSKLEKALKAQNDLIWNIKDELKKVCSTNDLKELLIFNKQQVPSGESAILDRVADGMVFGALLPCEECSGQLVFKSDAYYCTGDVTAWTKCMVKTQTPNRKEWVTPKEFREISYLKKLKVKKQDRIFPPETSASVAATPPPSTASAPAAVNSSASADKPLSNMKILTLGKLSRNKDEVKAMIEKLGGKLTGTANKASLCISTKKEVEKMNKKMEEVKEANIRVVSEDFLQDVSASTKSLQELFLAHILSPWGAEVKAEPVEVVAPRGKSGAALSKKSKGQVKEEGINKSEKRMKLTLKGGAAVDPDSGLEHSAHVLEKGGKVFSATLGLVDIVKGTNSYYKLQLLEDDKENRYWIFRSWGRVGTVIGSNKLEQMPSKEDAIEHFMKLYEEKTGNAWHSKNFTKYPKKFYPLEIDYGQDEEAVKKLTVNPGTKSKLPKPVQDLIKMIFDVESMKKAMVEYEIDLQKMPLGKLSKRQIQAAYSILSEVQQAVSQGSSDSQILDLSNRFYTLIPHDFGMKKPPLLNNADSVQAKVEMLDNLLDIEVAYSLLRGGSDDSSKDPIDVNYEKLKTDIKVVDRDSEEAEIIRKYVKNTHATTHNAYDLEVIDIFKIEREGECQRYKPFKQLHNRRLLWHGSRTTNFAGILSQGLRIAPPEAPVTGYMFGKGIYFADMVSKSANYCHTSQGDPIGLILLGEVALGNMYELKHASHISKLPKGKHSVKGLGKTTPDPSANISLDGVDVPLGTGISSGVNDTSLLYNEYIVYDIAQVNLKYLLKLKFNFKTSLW

`COc1cc(OC)c2c(=O)[nH]c(-c3ccc(OCCOc4ccccc4C(N)=O)cc3)nc2c1` [ADTL-BPI1901]: the half-maximal inhibitory concentration (IC50) is 4600 nM in data set [1], 15600 ± 1720 nM in [2], 6420 ± 1310 nM in [3] and 400 nM in data set [4] (setting [16]).

Take `COc1cc(OC)c2c(=O)[nH]c(-c3cccc(Cc4n[nH]c(=O)c5ccccc45)c3)nc2c1` [BP44]: the IC50 is 197 nM in [1], 6610 ± 580 nM in data set [2], 3010 ± 830 nM in data set [3] and 238 nM in data set [4] (setting [16]).

Consider `Cc1cc(S(=O)(=O)Nc2ccc3[nH]c(=O)c4c(c3c2)CCCC4)ccc1F` [HF1, 4-fluoro-3-methyl-N-(6-oxo-5,6,7,8,9,10-hexahydrophenanthridin-2-yl)benzenesulfonamide], for which the IC50 stood at 3560 ± 951 nM in data set [5]; 3500 nM in [5] (value of the text); 94 nM in [6]; 31900 nM in data set [7]; 11400 nM in data set [9]. For the same compound, the “BRD4 potency relative to HF2” value in [5] (more potent than HF2) worked out at 10 times. In data set [8], the “solubility during activity testing” value is “higher solubility”.

On to `Cc1cc(S(=O)(=O)Nc2ccc3[nH]c(=O)c4ccccc4c3c2)ccc1F` [HF2], for which the IC50 came to 32600 ± 6340 nM in data set [5] and 339 ± 86 nM in data set [6].

Turning to `CN(C)CC(=O)Nc1ccc2[nH]c(=O)c3c(c2c1)CCCC3` [HF3, 2-(dimethylamino)-N-(6-oxo-5,6,7,8,9,10-hexahydrophenanthridin-2-yl)acetamide], the IC50 in data set [5] was 28800 ± 6990 nM; in data set [5] (value of the text), approximately 28000 nM; in [6], 16 nM.

In the case of `CCc1cc2cc(NC(=O)CN(C)C)ccc2[nH]c1=O` [HF5, 2-(dimethylamino)-N-(3-ethyl-2-oxo-1,2-dihydroquinolin-6-yl)acetamide], the figures for the half-maximal inhibitory concentration (IC50) in [5], in [5] (value of the text) and in [6] were 34300 ± 7900 nM, approximately 34300 nM and 736 nM, respectively.

On to `Cc1noc(C)c1-c1ccc2c(c1)C(c1ccccc1)N(Cc1nc3c(C(N)=O)cccc3[nH]1)C(=O)N2C` (stereo not shown) [III-7], for which the IC50 was 49 nM in [1]; 1710 ± 210 nM in data set [10]; 1310 ± 110 nM in data set [11]; 1340 ± 160 nM in data set [12]; 202 nM in data set [4] (setting [16]).

With `CC[C@@H]1C(=O)N(C)c2cnc(N(C)c3ccc(-c4nc5c(C(N)=O)cccc5[nH]4)cc3OC)nc2N1C1CCCC1` [III-16], the IC50 in data set [1] was 13 nM; in data set [12] it was 980 ± 130 nM; in data set [4] (setting [16]), 101 nM.

As to `Cc1sc2c(c1C)C(c1ccc(Cl)cc1)=N[C@@H](CC(=O)OC(C)(C)C)c1nnc(C)n1-2` [JQ1, reference compound], the PARP1 expression entry in data set [13] was “significant increase”. The half-inhibitory concentration (IC50) in data set [14] turned out to be 4700 ± 1900 nM; in data set [7], 1200 ± 400 nM; in data set [9] it was 900 ± 100 nM. Besides, in data set [15], the BRD4 expression entry is on record as “significantly enhances its levels”.

`O=C(c1cc(Cc2n[nH]c(=O)c3ccccc23)ccc1F)N1CCN(C(=O)C2CC2)CC1` [Olaparib, olaparib, reference compound]: the IC50 is 2200 nM in data set [14], 13900 ± 2600 nM in [7] and 27200 ± 3500 nM in data set [9].

Take `COc1ccccc1S(=O)(=O)Nc1ccc2c(c1)CN(C)C(=O)N2` [PFI-1, reference compound]: the inhibition at 10 µM in data set [6] (10 μM, read-out: PARP1 inhibition rate) came out at 10%. Moreover, the 50% inhibitory concentration (IC50) in data set [4] was 220 nM.

In the case of `CN(C)CC(=O)Nc1ccc2[nH]c(=O)c3ccccc3c2c1` [PJ34, 2-(dimethylamino)-N-(6-oxo-5,6-dihydrophenanthridin-2-yl)acetamide, reference compound], 2070 ± 588 nM corresponded to half-maximal inhibition in data set [5] (IC50).

Take `COc1cc(OC)c2c(=O)[nH]c(-c3cc(C)c(OCCO)c(C)c3)nc2c1` [RVX-208, apabetalone, reference compound]: the “activity against PARP1” value in [6] (at 10 μM) is on record as “no activity”.
